Literature values in patent US8143269B2, “Inhibitors of store operated calcium release” (Calcimedica, Inc., priority 2008, dated 2012).

Key:
[1] = molecular target: STIM1 and Orai1 in human embryonic kidney 293 cells (HEK293 cells) (Homo sapiens, UniProt Q96D31); details: HEK293 cells coexpressing STIM1 and Orai1
[2] = test system: Jurkat cells
[3] = test system: colon cancer cells

Chain of STIM1 and Orai1 in human embryonic kidney 293 cells (HEK293 cells) (Q96D31 whole entry): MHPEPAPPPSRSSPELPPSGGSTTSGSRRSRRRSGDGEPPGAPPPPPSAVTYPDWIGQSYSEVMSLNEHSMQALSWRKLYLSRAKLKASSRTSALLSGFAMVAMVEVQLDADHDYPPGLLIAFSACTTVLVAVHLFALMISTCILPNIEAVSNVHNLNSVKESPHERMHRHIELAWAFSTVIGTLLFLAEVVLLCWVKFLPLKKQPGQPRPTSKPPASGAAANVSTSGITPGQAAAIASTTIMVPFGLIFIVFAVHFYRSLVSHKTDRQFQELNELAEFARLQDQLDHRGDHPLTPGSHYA

Row | SMILES | block of store-dependent Ca2+ entry [1] | inhibition of SOCE [2] | inhibition of proliferation [2] | inhibition of SOCE [3] | inhibition of proliferation [3]
1 | NCCOB(c1ccccc1)c1ccccc1 [2-aminoethoxydiphenylborate] | completely blocked |  |  |  | 
2 | Cc1nnsc1C(=O)Nc1ccc(-n2nc(C(F)(F)F)cc2C(F)(F)F)cc1 [BTP-2] |  | inhibits | inhibits | inhibits | inhibits
